Values after ≈ are worked out from the molar mass of the structure shown. Where two headings read alike, the source gives them in different places. Each block holds one molecule with its values, some of them ahead of it.
Legend:
[1] = rcm bond
[2] = system: MCF7; assay: Alamar blue proliferation assay, growth inhibition of MCF7 breast cancer cells; format: cell-based, human; details: for IC50: Homo sapiens
Source text: Biological Evaluation of Cycloproparadicicol Analogues. As discussed earlier, it appears that the inhibition of Hsp90 induces the proteasomal degradation of various oncogenic proteins, thereby leading to inhibition of tumor cell growth. We hoped to evaluate our synthetic analogues for their growth inhibition activity against MCF breast cancer cells. […] Further modifications of 27α, however, decreased its potency.
Cell Culture. The human cancer line MCF7 was obtained from American Type Culture Collection (Manassas, Va., USA) and maintained in 1:1 mixture of DME:F12 supplemented with 10% heat-inactivated fetal bovine serum, 2 mM glutamine, 50 units/ml of penicillin and streptomycin, and incubated in a humidified 5% CO2/air atmosphere at 37° C. For the Alamar blue proliferation assay, 2×10^3 cells were plated in 96-well plates. Twenty four hours later, cells were treated with the compound for 72 or 120 hours. On day 3 or 5, Alamar Blue viability assay (AccuMe Westlake, Ohio) was performed as described elsewhere (White, M. J.; DiCaprio, M. J Greenberg, D. A. J. Neurosci. Methods 1996, 70, 195-200; incorporated herein by reference). IC50s were calculated as the doses of the compound required to inhibit cell growth by 50% of control values.

[3] = system: HER2; assay: Her2 degradation in drug-treated MCF-7 cells by immunoblotting; format: cell-based, human; details: for concentration at which Her2 is degraded: P85 control
Description: To confirm that the cytotoxicity was indeed due to the inhibition of Hsp90, we set out to investigate the degradation of Her2, one of the most sensitive client proteins of this chaperone. The expression levels of Her2 of drug-treated MCF-7 cells were analyzed using immunoblotting (FIG. 31). P85, used as a control, is not a client protein of Hsp90. As expected, the growth inhibition activities of the synthetic active analogues are reflected in their capacity to degrade Her2. […] Nonchlorinated difluoro compound 38 degraded Her2 at 1 μM, and its chlorinated counterpart 31, at 10 μM.
Immunoblotting. For immunoblotting, cells in culture were washed and harvested in PBS, and then lysed in NP-40 buffer (50 mMTris, pH 7.5, 1% Nonidet P-40, 150 mM NaCl, 2.5 mM Na3VO4, 10 mM phenylmethylsulfonyl fluoride, and 10 μM each leupeptin, aprotinin, and soybean trypsin inhibitor). Cell lysates were cleared by centrifugation at 14,000×g for 10 minutes, and supernatants were collected as the experimental samples. Protein concentrations were determined using BCA reagent (Pierce Chemical Co., Rockford, Ill.). Lysates were added to sample buffer [0.3125 M Tris-HCl (pH 6.8), 10% SDS, 50% glycerol, and 77.5 mg/ml DTT], and equal amounts of protein were resolved by 7% SDS-PAGE and transferred to nitrocellulose membranes. Blots were blocked in 5% nonfat milk in Tris-buffered saline [0.1% Tween 20, 10 mM Tris (pH 7.4), and 150 mM NaCl] and subsequently probed with antibody (HER2 rabbit polyclonal IgG, Santa Cruz Biotechnology, Santa Cruz, Calif.; and PI3 kinase P85, Upstate Cell Signaling Solutions, Lake Placid, N.Y.). After incubation with horseradish peroxidase-conjugated secondary antibodies, proteins were visualized by chemiluminescence using the ECL detection reagents (Amersham Corp., Piscataway, N.J.). To prepare lysate from xenograft tumors, tumor tissue was homogenized in 2% SDS lysis buffer for 30 s then processed as above.

[4] = system: HER2; assay: Reduction of HER2 in MCF7 and BT474 cells (protein assay, gels); format: cell-based, human; details: tested at 0.5 μM through 5 μM
Description: As depicted in FIGS. 17 and 18, four analogues have been tested for their ability to reduce HER2 in MCF7 and BT474 cells. […] Furthermore, while the vinyl epoxide, a reactive moiety, may be responsible for undesired cytotoxicity, the cyclopropane is far more stabile to non-productive cellular nucleophiles.
The human cancer cell lines MCF7, BT474 and N417 were obtained from the American Type Culture Collection (Manassas, Va., USA) and maintained in a 1:1 mixture of DME:F12 supplemented with 2 mM glutamine, 50 U/mL penicillin, 50 U/mL streptomycin and 5% heat inactivated fetal bovie serum (Gemini Bioproducts) and incubated at 37° C. in 5% CO2.
Cells were grown to 60-70% confluence and exposed to drugs or DMSO vehicle for the indicated time periods. Lysates were prepared using 50 mM Tris pH 7.4, 2% SDS and 10% glycerol lysis buffer. Protein concentration was determined using the BCA kit (Pierce Chemical Co.) according to the manufacturer's instructions. Clarified protein lysates (20-50 μg) were electrophoretically resolved on denaturing SDS-PAGE, transferred to nitrocellulose and probed with the following primary antibodies: anti-Her2 (C-18).

[5] = system: breast cancer cell with wild type Rb; assay: Inhibition of breast cancer cell with wild type Rb; format: cell-based, human
Description: (§1) Growth assays were performed by seeding 10000 cells (MCF7, BT474 or N417) per well in 6-welldishes and incubating for 24 h before drug treatment. Drugs or vehicle were administered as outlined for each experiment, and cells were incubated for the time periods depicted and then the number quantified by a Coulter counter.

[6] = system: small cell lung cancer cell line with defective Rb function; assay: Inhibition of small cell lung cancer cell line with defective Rb function; format: cell-based, human
Description: as §1

[7] = system: Hsp90; details: cited from earlier work
[8] = system: MCF7 cells; assay: Growth of MCF7 cells (HER2 overexpressed, Rb positive) treated with radicicol and analogues; format: cell-based, human
[9] = cited from earlier work
[10] = system: P. falciparum; details: cited from earlier work
[11] = system: KB cells; details: cited from earlier work
[12] = MCF7, MCF breast cancer cells, 72 h treatment, read-out: IC50 value
[13] = MCF7 cells, 72 h treatment, read-out: IC50 (pM) Values of Cycloproparadicicol Analogues and Aigialomycin D
[14] = MCF breast cancer cells, 72 h treatment

IC50 [2, 12]: 390000 pM | IC50 [2, 13]: 390000 pM
Molecule: C[C@@H]1C[C@H]2C[C@@H]2/C=C\C=C\[C@H](O)Cc2c(Cl)c(O)cc(O)c2C(=O)O1 [28α]

IC50 [2, 13]: 98000 pM
Molecule: C[C@@H]1C[C@H]2C[C@@H]2\C=C/C=C/C(=N\O)Cc2c(Cl)c(O)cc(O)c2C(=O)O1 [(Z)-30]
potency relative to the corresponding (E)-isomer ([2]; MCF breast cancer cells, 72 h): 3 times | concentration at which Her2 is degraded [3]: 0.3 µM

IC50 [2, 13]: 3e+06 pM
Molecule: C[C@@H]1C[C@@H]2[C@@H](/C=C\C=C\C(=O)Cc3cc(O)cc(O)c3C(=O)O1)C2(F)F [compound 38, Difluorocyclopropamonocilin]
concentration at which Her2 is degraded [3]: 1 µM

IC50 [2, 12]: 150000 pM | IC50 [2, 13]: 150000 pM
Molecule: C[C@@H]1C[C@H]2C[C@@H]2/C=C\C=C\[C@H](O)Cc2cc(O)cc(O)c2C(=O)O1 [27α]
concentration at which Her2 is degraded [3]: 0.3 µM

IC50 [2, 13]: 1e+07 pM
Molecule: C[C@@H]1C[C@@H]2[C@@H](/C=C\C=C\C(=O)Cc3c(Cl)c(O)cc(O)c3C(=O)O1)C2(F)F [compound 31, Difluorocycloproparadicicol]
concentration at which Her2 is degraded [3]: 10 µM

IC50 [2, 13]: 282000 pM
Molecule: C[C@@H]1C[C@H]2C[C@@H]2\C=C/C=C/C(=N/O)Cc2c(Cl)c(O)cc(O)c2C(=O)O1 [(E)-30]
capacity to degrade Her2 [3]: less effective

IC50 [2, 13]: 54000 pM
Molecule: C[C@@H]1C[C@H]2C[C@@H]2/C=C\C=C\C(=O)Cc2c(Cl)c(O)cc(O)c2C(=O)O1 [compound 2, Cycloproparadicicol]
effectiveness in reducing HER2 relative to radicicol [4]: at least as effective, if not better than radicicol | inhibition of breast cancer cell with wild type Rb [5]: potent inhibitors | inhibition of small cell lung cancer cell line with defective Rb function [6]: potent inhibitors | potency relative to 17-AGG in small cell lung cancer cell line with defective Rb function [6]: much more potent than 17-AGG | growth inhibition activity [2, 14]: most potent of the new compounds | concentration at which Her2 is degraded [3]: 0.3 µM | binds to Hsp90 at [7]: ca. 160 nM

IC50 [2, 13]: > 500000 pM
Molecule: C[C@@H]1C[C@H]2C[C@@H]2/C=C\C=C\[C@@H](O)Cc2cc(O)cc(O)c2C(=O)O1 [27β]
growth inhibition activity [2, 14]: inactive

IC50 [2, 13]: > 1e+07 pM
Molecule: CO[C@H]1/C=C/C=C\[C@H]2C[C@@H]2C[C@@H](C)OC(=O)c2c(O)cc(O)cc2C1 [29α]
growth inhibition activity [2, 14]: completely inactive

The next lines start with the molecule.

Molecule: C[C@@H]1C[C@H]2C[C@@H]2C=C/C=C/C(O[Si](C)(C)C(C)(C)C)CC#CC(=O)O1 (some centres unmarked)
ring closure, yield of all isomers ([1]; from C=C[C@H]1C[C@@H]1C[C@@H](C)OC(=O)[C]12[Co]3[Co]1[C]32CC(/C=C/C=C/C)O[Si](C)(C)C(C)(C)C.[C-]#[O+].[C-]#[O+].[C-]#[O+].[C-]#[O+].[C-]#[O+].[C-]#[O+], 2 steps): 51%

Molecule: C[C@@H]1C[C@H]2C[C@@H]2C=C/C=C/C(O[Si](C)(C)C(C)(C)C)C[C]23[Co]4[Co]2[C]43C(=O)O1.[C-]#[O+].[C-]#[O+].[C-]#[O+].[C-]#[O+].[C-]#[O+].[C-]#[O+] (some centres unmarked)
ring closure, yield of all isomers ([1]; from C=C[C@H]1C[C@@H]1C[C@@H](C)OC(=O)[C]12[Co]3[Co]1[C]32CC(/C=C/C=C/C)O[Si](C)(C)C(C)(C)C.[C-]#[O+].[C-]#[O+].[C-]#[O+].[C-]#[O+].[C-]#[O+].[C-]#[O+]): 57%

Molecule: C[C@H]1CC=C[C@H]2OC(C)(C)O[C@H]2CCC(O[Si](C)(C)C(C)(C)C)C[C]23[Co]4[Co]2[C]43C(=O)O1.[C-]#[O+].[C-]#[O+].[C-]#[O+].[C-]#[O+].[C-]#[O+].[C-]#[O+] (some centres unmarked)
ring closure, yield of all isomers ([1]; from C=CC[C@H](C)OC(=O)[C]12[Co]3[Co]1[C]32CC(CC[C@@H]1OC(C)(C)O[C@@H]1C=C)O[Si](C)(C)C(C)(C)C.[C-]#[O+].[C-]#[O+].[C-]#[O+].[C-]#[O+].[C-]#[O+].[C-]#[O+]): 80%

Molecule: C[C@@H]1C[C@H]2C[C@@H]2C=C/C=C/C(O[Si](C)(C)C(C)(C)C)CC#CC(=O)N1 (some centres unmarked)
ring closure, yield of all isomers ([1]; from C=C[C@H]1C[C@@H]1C[C@@H](C)NC(=O)C#CCC(/C=C/C=C/C)O[Si](C)(C)C(C)(C)C.[C-]#[O+].[C-]#[O+].[C-]#[O+].[C-]#[O+].[C-]#[O+].[C-]#[O+].[Co].[Co], 2 steps): 60%

Molecule: CC(C)(C)[Si](C)(C)OC1/C=C/C=CCCCCOC(=O)[C]23[Co]4[Co]2[C]43C1.[C-]#[O+].[C-]#[O+].[C-]#[O+].[C-]#[O+].[C-]#[O+].[C-]#[O+] (centres unmarked)
ring closure, yield of all isomers ([1]; from C=CCCCCOC(=O)[C]12[Co]3[Co]1[C]32CC(/C=C/C=C/C)O[Si](C)(C)C(C)(C)C.[C-]#[O+].[C-]#[O+].[C-]#[O+].[C-]#[O+].[C-]#[O+].[C-]#[O+]): 71%

Molecule: C[C@@H]1C[C@H]2O[C@@H]2/C=C\C=C\C(=O)Cc2c(Cl)c(O)cc(O)c2C(=O)O1 [radicicol, reference compound]
efficacy in side by side experiment with radicicol [8]: demonstrated efficacy | inhibition of breast cancer cell with wild type Rb [5]: potent inhibitors | inhibition of small cell lung cancer cell line with defective Rb function [6]: potent inhibitors | activity in in vivo (animal) models [9]: ineffective

Molecule: 17-alkylaminogeldanamycin [17-AGG, reference compound]
potency in cells with wild type Rb versus cells with defective Rb function [6]: much more potent against cells with wild type Rb than in cells with defective Rb function

Molecule: C[C@H]1C/C=C/[C@@H](O)[C@@H](O)CC/C=C/c2cc(O)cc(O)c2C(=O)O1 [compound 46, Aigialomycin D]
IC50 ([2]; MCF7, 72 h, read-out: IC50 (pM) Values of Cycloproparadicicol Analogues and Aigialomycin D): > 1e+07 pM | growth inhibition activity [2, 14]: significantly less active than the cycloproparadicicol derivatives | concentration at which Her2 is degraded [3]: > 10 µM | IC50 against P. falciparum (antimalarial activity) [10]: 6.6 µg/mL (≈ 19.7 µM) | IC50 against KB cells (antitumor activity) [11]: 3.0 µg/mL (≈ 8.97 µM)

Reference: patent US20080108694A1, “Novel Macrocycles and Uses Thereof” (priority 2003, published 2008)
